Data from patent US7011772B2, “UV absorbing mixture with textile fiber affinity” (BASF Aktiengesellschaft, priority 2000, dated 2006).

Experiments:
[1] = UV protection factor UPF of cotton fabric after laundry aftertreatment in final rinse bath; conditions: in Lenor care conditioner 1000 ppm, dried white cotton fabric, AS/NZS 4399:1996
Method: The UV protection factor UPF of textiles is determined in accordance with the Australian/New Zealand standard AS/NZS 4399:1996 using an in vitro method. It measures the UV transmission of the textile object. The spectral transmission can be used to determine the protection factor directly using the following equation: [formula] where • Sλ=spectral irradiation of the sun in the UV region at the wavelength λ • Eλ=spectral erythema action of the UV radiation at the wavelength λ • Tλ=spectral transmission of the textile object at the wavelength λ.
White woven cotton fabric having a basis weight of 100 g/mm^2 [sic] and a UV protection factor UPF of 4.50 was washed using a water hardness of 3 mmol/l. The laundering process was a main wash cycle at 40° C. with a commercially available laundry detergent (Ariel® Color) and a subsequent conditioning rinse. The conditioner used was a commercially available formulation (Lenor® care) in a dosage of 1000 ppm, based on the liquor. […] After the conditioning rinse cycle, the fabric was removed and its UV protection factor UPF was determined in the dried state.

[2] = Photostability of dyed cotton fabric after conditioning rinse (SUNTEST exposure, K/S values); conditions: 200 ppm based on the liquor; 14 hours SUNTEST exposure under outdoor conditions; K/S at maximum of K/S spectra; higher = higher photostability
Method: Woven cotton fabric dyed with Reactive Black 5 to ⅓ standard depth of shade was treated in the conditioning rinse cycle with a commercially available formulation (Lenor® care, 1000 ppm based on the liquor) in the presence of an inventive UV absorber mixture M1, M2, M3, M4, M5, M6 or M7 (each at 200 ppm based on the liquor) in a liquor ratio of 12.5:1. After the conditioning rinse cycle, the dyed fabric was removed and tested for photostability in the dried state.
The samples were exposed in a SUNTEST® tabletop accelerated lighting unit (from Heraeus, Hanau) for 14 hours under outdoor conditions. A spectrophotometer incl. an integration sphere (“Lambda 900” from Perkin Elmer) was used to measure the reflectance spectra of dyeings before and after exposure. These reflectance spectra were converted in line with the Kubelka-Munk theory into K/S spectra (K=absorption coefficient, S=scattering coefficient). The photostabilities are evaluated with reference to the K/S values after 14 hour exposure relative to the K/S values prior to exposure (K/S in each case at the maximum of the K/S spectra). The higher the value in % reported in Table 2, the higher the photostability.

With CCCCC(CC)COC(=O)C(C#N)=C(c1ccccc1)c1ccccc1 (stereo not shown) [Mixture A1, 2-ethylhexyl 2-cyano-3,3-diphenylacrylate] the “UPF with 50 ppm” value ([1]; 50 ppm UV absorber based on the liquor) was 8.6, the “UPF with 100 ppm” value ([1]; 100 ppm UV absorber based on the liquor) was 13.5 and the “UPF with 200 ppm” value ([1]; 200 ppm UV absorber based on the liquor) was 21.1. The “K/S (14 h)/K/S (0 h) × 100%” value [2] was 67.7%.
